What all share (format): cell-based
The test system of one test is Jurkat T-cells. The test is described as follows: Microphotographs of treated Jurkat T-cells (FIG. 5). Conditions: auranofin at a clinically-acceptable concentration added to BSO and cisplatin (FIG. 5). The text has this:
FIG. 5 is microphotographs of Jurkat T-cells treated with different concentrations of cisplatin, auranofin or buthionine sulfoximine (BSO).

The test system of test [1] is Supt-1 T-cells. The test is described as follows: Viability of Supt-1 T-cells (MTS assay, FIGS. 2 and 6). Conditions: only with 0.5 μM auranofin, with BSO (FIG. 2). The method, then:
FIG. 2 is a graph showing the viability of Supt-1 T-cells treated with different concentrations of auranofin (AU) or buthionine sulfoximine (BSO). Viability was measured 72 hours after treatment with the drugs at the indicated concentrations with the MTS assay. Absorbance values were normalized over untreated controls and expressed as percentage. BSO=buthionine sulfoximine. Concentrations are expressed in μM. Data are expressed as mean t SEM and were analysed by the Turkey posttest following One Way ANOVA. *P<0.05; **P<0.01 ***P<0.001; ****P<0.0001. NS: non-significant. The synergistic index (SI) is expressed where significant differences exist in comparison with the single drug treatments.
FIG. 6 is a graph showing the viability of Supt-1 T-cells treated with different concentrations of cisplatin or buthionine sulfoximine (BSO). Viability was measured 72 hours after treatment with the drugs at the indicated concentrations with the MTS assay. Absorbance values were normalized over untreated controls and expressed as percentage. BSO=buthionine sulfoximine. Concentrations are expressed in μM; Asterisks show the significant differences [*q<0.05; **q<0.01; q is the P value corrected for multiple comparisons by controlling the False Discovery Rate (threshold for significance=q=0.05)]. NS: non-significant. The synergistic index (SI) is expressed where significant differences exist in comparison with the single drug treatments.
In-vitro activity on activated CD4^+ T-cells and leukemia/lymphoma Methods. Resting CD4^+ T-cells, cultured T-cell leukemic Jurkat cells and Sup-T1 cells were left untreated or incubated for 24-72 hours with various concentrations of auranofin and/or buthionine sulfoximine (BSO), or chloroquine (only CD4^+ T-cells) or cisplatin (only Jurkat and Supt-T1 cells) CD4^+ T-cells were then activated by adding phytohemagglutinin (2 μg/mL). Alternatively, CD4^+ T-cells were first activated with anti-CD3/anti-CD28 beads and, after 72 hours, were left untreated or were incubated with auranofin and/or buthionine sulfoximine (BSO), or chloroquine. Cell viability was determined 24-72 hours post-activation with an MTT assay (CellTiter 96@ Non-Radioactive Cell Proliferation Assay) or MTS assay (CellTiter 960 AQueous One Solution Cell Proliferation Assay System; Promega). For the assay, 300×10^5 cells were re-suspended in 100 μL of medium and transferred to a 96-well plate. Cells were then incubated with 20 μL of a substrate solution (One Solution Reagent) for 3-4 hours in a CO2 (5%) incubator at 37° C. For the MTT assay, 100 μL of a Solubilization/Stop Solution were used to stop the reaction. Medium-only containing wells were included to serve as a blank control. Absorbance levels were recorded at 490 nm (MTS) or 570 nm (MTT) and, after subtraction of the blank, absorbance values were expressed as percentage of controls.
Results. The results from the new dosage combinations were compared to the untreated cells as well as the cells treated with single drugs or “classical” dosages, in a multiple comparison analysis. Thus, the statistical significances shown are also significant compared to the untreated cells.

Test [2] concerns Supt-1 T-cells. In words: Microphotographs of treated Supt-1 T-cells (FIG. 3). Conditions: 0.25 μM auranofin with submicromolar BSO (FIG. 3). The source says: FIG. 3 is microphotographs of Supt-1 T-cells treated with different concentrations of auranofin or buthionine sulfoximine.

For `CC(=O)OC[C@H]1O[C@@H]([S-])[C@H](OC(C)=O)[C@@H](OC(C)=O)[C@@H]1OC(C)=O.CCP(CC)CC.[Au+]` [auranofin], the results for the cell morphology entry with Jurkat T-cells and in the test with Supt-1 T-cells [2] were “increased the aforementioned morphological alterations” and “morphological alterations linked to poor lymphoblastic cell viability”, respectively. Further, the “synergism in terms of cell viability” value in the test on Supt-1 T-cells [1] was “significant synergism”.

Values taken from patent US12150925B2, “Buthionine sulfoximine and a metallodrug for the treatment of cancer, HIV or a rheumatic disease” (Istituto Superiore di Sanità, priority 2017, dated 2024).
